From patent US9328106B2, “Cyclic ether pyrazol-4-yl-heterocyclyl-carboxamide compounds and methods of use” (Genentech, Inc., priority 2012, dated 2016)

What follows are compounds tested against PIM1 (Homo sapiens (Human), UniProt P11309) (assay: biochemical). Conditions: 20 pM PIM1, 1 μM FAM-peptide, 10 μM ATP, 90 minutes at room temperature; read-out: PIM1 LC3K (KI).
Assay type: biochemical

Sequence of PIM1 (P11309 whole entry): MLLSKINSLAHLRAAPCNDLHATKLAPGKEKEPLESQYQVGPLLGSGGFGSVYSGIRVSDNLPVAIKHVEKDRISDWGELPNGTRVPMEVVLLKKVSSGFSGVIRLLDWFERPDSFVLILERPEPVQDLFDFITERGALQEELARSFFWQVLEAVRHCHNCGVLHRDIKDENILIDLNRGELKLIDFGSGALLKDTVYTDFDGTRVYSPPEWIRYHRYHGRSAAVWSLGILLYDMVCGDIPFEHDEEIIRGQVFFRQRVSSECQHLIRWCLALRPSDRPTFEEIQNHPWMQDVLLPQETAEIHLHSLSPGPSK

Row | Ki [pM] | Compound
1 | 274 | Cn1ncc(NC(=O)c2csc(-c3cccc(F)c3Cl)n2)c1[C@@H]1CC[C@@H](N)[C@H](F)CO1 [Example 309, N-(5-((2S,5R,6S)-5-amino-6-fluorooxepan-2-yl)-1-methyl-1H-pyrazol-4-yl)-2-(2-chloro-3-fluorophenyl)thiazole-4-carboxamide]
2 | 93 | Cn1ncc(NC(=O)c2csc(-c3cc(C4CC4)ccc3F)n2)c1[C@@H]1CC[C@@H](N)[C@H](F)CO1 [Example 310, N-(5-((2S,5R,6S)-5-amino-6-fluorooxepan-2-yl)-1-methyl-1H-pyrazol-4-yl)-2-(5-cyclopropyl-2-fluorophenyl)thiazole-4-carboxamide]
3 | 1650 | Cn1ncc(NC(=O)c2csc(-c3ccccc3C(F)(F)F)n2)c1[C@@H]1CC[C@@H](N)[C@H](F)CO1 [Example 311, N-(5-((2S,5R,6S)-5-amino-6-fluorooxepan-2-yl)-1-methyl-1H-pyrazol-4-yl)-2-(2-(trifluoromethyl)phenyl)thiazole-4-carboxamide]
4 | 3 | Cc1cc(F)c(-c2nc(C(=O)Nc3cnn(C)c3[C@@H]3CC[C@@H](N)[C@H](F)CO3)cs2)c(F)c1 [Example 312, N-(5-((2S,5R,6S)-5-amino-6-fluorooxepan-2-yl)-1-methyl-1H-pyrazol-4-yl)-2-(2,6-difluoro-4-methylphenyl)thiazole-4-carboxamide]
5 | 2 | Cn1ncc(NC(=O)c2csc(-c3ccc(Cl)cc3F)n2)c1[C@@H]1CC[C@@H](N)[C@H](F)CO1 [Example 313, N-(5-((2S,5R,6S)-5-amino-6-fluorooxepan-2-yl)-1-methyl-1H-pyrazol-4-yl)-2-(4-chloro-2-fluorophenyl)thiazole-4-carboxamide]
6 | 2080 | Cn1ncc(NC(=O)c2csc(-c3cccc(C(F)(F)F)n3)n2)c1[C@@H]1CC[C@@H](N)[C@H](F)CO1 [Example 314, N-(5-((2S,5R,6S)-5-amino-6-fluorooxepan-2-yl)-1-methyl-1H-pyrazol-4-yl)-2-(6-(trifluoromethyl)pyridin-2-yl)thiazole-4-carboxamide]
7 | 91 | Cc1cccc(F)c1-c1nc(C(=O)Nc2cnn(C)c2[C@@H]2CC[C@@H](N)[C@H](F)CO2)cs1 [Example 315, N-(5-((2S,5R,6S)-5-amino-6-fluorooxepan-2-yl)-1-methyl-1H-pyrazol-4-yl)-2-(2-fluoro-6-methylphenyl)thiazole-4-carboxamide]
8 | 98 | Cn1ncc(NC(=O)c2csc(-c3ccccc3F)n2)c1[C@@H]1CC[C@@H](N)[C@@H](F)CO1 [Example 318, N-(5-((2S,5R,6R)-5-amino-6-fluorooxepan-2-yl)-1-methyl-1H-pyrazol-4-yl)-2-(2-fluorophenyl)thiazole-4-carboxamide]
9 | 16 | Cc1cccc(F)c1-c1nc(C(=O)Nc2cnn(C)c2[C@@H]2CC[C@@H](N)[C@H](F)CO2)c(N)s1 [Example 330, 5-amino-N-(5-((2S,5R,6S)-5-amino-6-fluorooxepan-2-yl)-1-methyl-1H-pyrazol-4-yl)-2-(2-fluoro-6-methylphenyl)thiazole-4-carboxamide]
10 | 104 | Cn1ncc(NC(=O)c2nc(-c3c(F)cccc3C(F)(F)F)sc2N)c1[C@@H]1CC[C@@H](N)[C@H](F)CO1 [Example 331, 5-amino-N-(5-((2S,5R,6S)-5-amino-6-fluorooxepan-2-yl)-1-methyl-1H-pyrazol-4-yl)-2-(2-fluoro-6-(trifluoromethyl)phenyl)thiazole-4-carboxamide]
11 | 3 | Cn1ncc(NC(=O)c2nc(-c3c(F)ccc(F)c3F)sc2N)c1[C@@H]1CC[C@@H](N)[C@H](F)CO1 [Example 332, 5-amino-N-(5-((2S,5R,6S)-5-amino-6-fluorooxepan-2-yl)-1-methyl-1H-pyrazol-4-yl)-2-(2,3,6-trifluorophenyl)thiazole-4-carboxamide]
12 | 30 | Cn1ncc(NC(=O)c2nc(C3=CCCC3)sc2N)c1[C@@H]1CC[C@@H](N)[C@H](F)CO1 [Example 333, 5-amino-N-(5-((2S,5R,6S)-5-amino-6-fluorooxepan-2-yl)-1-methyl-1H-pyrazol-4-yl)-2-(cyclopent-1-en-1-yl)thiazole-4-carboxamide]
13 | 453 | Cn1ncc(NC(=O)c2nc(C3CCCC3)sc2N)c1[C@@H]1CC[C@@H](N)[C@H](F)CO1 [Example 334, 5-amino-N-(5-((2S,5R,6S)-5-amino-6-fluorooxepan-2-yl)-1-methyl-1H-pyrazol-4-yl)-2-cyclopentylthiazole-4-carboxamide]
14 | 92 | Cn1ncc(NC(=O)c2nc(-c3ccccc3C(F)F)sc2N)c1[C@@H]1CC[C@@H](N)[C@H](F)CO1 [Example 335, 5-amino-N-(5-((2S,5R,6S)-5-amino-6-fluorooxepan-2-yl)-1-methyl-1H-pyrazol-4-yl)-2-(2-(difluoromethyl)phenyl)thiazole-4-carboxamide]
15 | 188 | Cn1ncc(NC(=O)c2nc(-c3cccc(F)c3C(F)(F)F)sc2N)c1[C@@H]1CC[C@@H](N)[C@H](F)CO1 [Example 336, 5-amino-N-(5-((2S,5R,6S)-5-amino-6-fluorooxepan-2-yl)-1-methyl-1H-pyrazol-4-yl)-2-(3-fluoro-2-(trifluoromethyl)phenyl)thiazole-4-carboxamide]
16 | 15 | Cn1ncc(NC(=O)c2nc(-c3cccc(F)c3Cl)sc2N)c1[C@@H]1CC[C@@H](N)[C@H](F)CO1 [Example 337, 5-amino-N-(5-((2S,5R,6S)-5-amino-6-fluorooxepan-2-yl)-1-methyl-1H-pyrazol-4-yl)-2-(2-chloro-3-fluorophenyl)thiazole-4-carboxamide]
17 | 7 | Cn1ncc(NC(=O)c2nc(-c3cccc(Cl)c3F)sc2N)c1[C@@H]1CC[C@@H](N)[C@H](F)CO1 [Example 338, 5-amino-N-(5-((2S,5R,6S)-5-amino-6-fluorooxepan-2-yl)-1-methyl-1H-pyrazol-4-yl)-2-(3-chloro-2-fluorophenyl)thiazole-4-carboxamide]
18 | 3120 | Cn1ncc(NC(=O)c2csc(-c3c(F)cncc3Cl)n2)c1[C@@H]1CC[C@@H](N)[C@H](F)CO1 [Example 349, N-(5-((2S,5R,6S)-5-amino-6-fluorooxepan-2-yl)-1-methyl-1H-pyrazol-4-yl)-2-(3-chloro-5-fluoropyridin-4-yl)thiazole-4-carboxamide]
19 | > 667000 | Cn1ncc(NC(=O)c2csc(-c3c(F)cccc3F)n2)c1[C@@H]1CC[C@@H](N)[C@@H](O)CO1 [Example 350, N-(5-((2S,5R,6R)-5-amino-6-hydroxyoxepan-2-yl)-1-methyl-1H-pyrazol-4-yl)-2-(2,6-difluorophenyl)thiazole-4-carboxamide]
20 | 174 | Cn1ncc(NC(=O)c2csc(-c3c(F)cccc3F)n2)c1[C@@H]1CC[C@@H](N)[C@H](O)CO1 [Example 352, N-(5-((2S,5R,6S)-5-amino-6-hydroxyoxepan-2-yl)-1-methyl-1H-pyrazol-4-yl)-2-(2,6-difluorophenyl)thiazole-4-carboxamide]
21 | 111 | Cn1ncc(NC(=O)c2csc(-c3c(F)cccc3F)n2)c1[C@H]1CC[C@H](N)[C@@H](O)CO1 [Example 353, N-(5-((2R,5S,6R)-5-amino-6-hydroxyoxepan-2-yl)-1-methyl-1H-pyrazol-4-yl)-2-(2,6-difluorophenyl)thiazole-4-carboxamide]
22 | 35 | COc1cccc(-c2nc(C(=O)Nc3cnn(C)c3[C@@H]3CC[C@@H](N)[C@H](F)CO3)cs2)c1 [Example 357, N-(5-((2S,5R,6S)-5-amino-6-fluorooxepan-2-yl)-1-methyl-1H-pyrazol-4-yl)-2-(3-methoxyphenyl)thiazole-4-carboxamide]
